From US12509451B2, “Heteroaryl amide inhibitors of CD38” (NAPA THERAPEUTICS LTD., priority 2020, dated 2025) come the findings set out here.

Assay [1] deals with T1, CD38 (Mus musculus, UniProt P56528).
T1 construct: aged mice (male C57BL6/J, 22 months old) were fasted for 4 hr; from tissue; host or cells: C57BL6/J mice (aged, DIO obese or LPS-challenged); liver, spleen, plasma
T1 sequence (P56528 1-304): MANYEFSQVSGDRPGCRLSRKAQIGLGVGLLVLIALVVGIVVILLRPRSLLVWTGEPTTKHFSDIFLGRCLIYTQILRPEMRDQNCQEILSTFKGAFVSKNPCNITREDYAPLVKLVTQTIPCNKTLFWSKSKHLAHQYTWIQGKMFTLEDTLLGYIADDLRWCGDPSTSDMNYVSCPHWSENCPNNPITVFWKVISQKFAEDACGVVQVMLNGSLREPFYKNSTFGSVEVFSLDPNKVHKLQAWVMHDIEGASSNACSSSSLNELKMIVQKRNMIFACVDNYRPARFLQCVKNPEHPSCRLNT
The assay can be described thus: In vivo efficacy against CD38 in aged mice, single oral dose, liver NAD+ metabolites. On the procedure: The in vivo efficacy of Compound 35 against the human CD38 enzyme was tested in aged mice after oral administration and determined by mass spec analysis of NAD+ metabolites levels in liver tissue. The two main CD38 substrates, NAD+ and NMN, and the 2 main byproducts of the CD38 enzymatic reaction, NAM and ADPR, were measured.
Briefly, aged mice (male C57BL6/J, 22 months old) were fasted for 4 hr and compound 35 was administered via oral gavage at a concentration of 3 mg/kg and 10 mg/kg. Mice were humanely euthanized for liver tissue harvesting at 1-, 3-, and 6-hr post-dosing. A vehicle control (DMSO:Solutol: SBE-CD, 2:5:93, v/v) was included to assess baseline NAD+ metabolites levels.
The procedure for tissue sample preparation and UPLC-MS/MS methods were adapted from Trammell et al. (2013) Compu. Struct. Biotechnol. J. […] (https://www.ncbi.nlm.nih.gov/pmc/articles/PMC3962138/). Briefly, frozen liver tissue was pulverized and resuspended in the extraction buffer (3:1 ethanol:10 mM aq. HEPES, pH 7.1). The samples were vortexed, sonicated briefly in a bath sonicator, and shaken at 55° C. for 3 min at 1,200 rpm. Samples were then centrifuged at 16,000×g for 10 min at 4° C., and the supernatant was dried by speedvac. The dried pellet was resuspended in 97% 10 mM ammonium acetate/3% acetonitrile, centrifuged at 16,000×g for 10 min at 4° C. and 2 μL was injected for LCMS analysis.
The UPLC-MS/MS analysis to measure NAD+ metabolites was performed using a Vanquish UHPLC system and a Q Exactive Orbitrap mass spectrometer with H-ESI ion source both from Thermo Scientific. UPLC separation was performed on a Hypercarb (2.1×100 mm, 5 μm particle size, Thermo) column following the method described in Trammell et al. (2013). Acquisition was carried out in positive ion, Parallel Reaction Monitoring (PRM) mode and targeted […] (t-SIM). The Thermo Xcalibur QualBrowser system software (version 4.2.47) and Freestyle (version 1.8.51.0) softwares was used for the data processing. For relative fold change, peak areas were normalized with respective internal standards, normalized to weight of the tissue sample used, and calculated as fold change relative at 0 h timepoint/vehicle group.

Assay [2] has as its target T2, human CD38 enzyme in primary human CD4+ T cells (Homo sapiens, UniProt P28907).
T2 construct: whole primary human CD4+ T cells (from healthy donors); endogenous in cells
T2 sequence (P28907 1-300): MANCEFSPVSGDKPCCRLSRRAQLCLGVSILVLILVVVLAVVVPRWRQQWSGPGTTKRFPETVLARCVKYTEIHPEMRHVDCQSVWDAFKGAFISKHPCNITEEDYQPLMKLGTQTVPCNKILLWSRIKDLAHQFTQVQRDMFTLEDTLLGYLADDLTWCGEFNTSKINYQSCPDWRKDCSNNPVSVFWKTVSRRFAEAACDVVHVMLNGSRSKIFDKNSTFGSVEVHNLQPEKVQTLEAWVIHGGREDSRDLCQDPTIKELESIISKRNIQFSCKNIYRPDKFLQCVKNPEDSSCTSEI
The assay can be described thus: NAD+ hydrolase activity assay in primary human activated CD4+ T cells (Assay 7). The conditions noted are these: primary human CD4+ T cells activated with anti-CD3/CD28. It is filed as cell-based. On the procedure: The in vitro potency of Compound 35 against the human CD38 enzyme was determined by a fluorescence-based NAD+ hydrolase activity assay using the NAD+ analog nicotinamide 1,N^6-etheno-adenine dinucleotide (εNAD+) as substrate. The assay utilized: 1) whole primary human CD4+ T cells (from healthy donors) activated with anti-CD3/CD28 antibodies and expressing human CD38; or II) whole primary human macrophages (from healthy donors) stimulated with LPS to polarize in a pro-inflammatory M1 state expressing human CD38. The cells were incubated in the presence of 8 different concentrations of Compound 35 for 10 minutes and the reaction was started adding the substrate εNAD+. The emission of fluorescence was measured at 410-20 nm at 37° C. every minute for 1 hr. The NAD+ hydrolase activity was calculated as the slope of the linear portion of the fluorescence-time curve and used to calculate the IC50 value.

Assay [3] deals with T1, CD38. The assay can be described thus: LPS-induced inflammation in mice, gene expression analysis in spleen and liver. The assay is classed as in vivo.

One may read the IC50 as the concentration needed to halve the response being measured. The low end stands for higher potency, the high end for lower potency.

Turning to `COc1cc(C(=O)Nc2ccnc(C(F)(F)F)c2)nc(-n2ccnc2)c1` [Compound 35, 6-(1H-imidazol-1-yl)-4-methoxy-N-(2-(trifluoromethyl)pyridin-4-yl)picolinamide], at CD38 [1] (single 3 mg/kg oral dose), the “ADPR levels in liver” value was “decrease”, the “NAD+ levels in liver” value is “increase”, the “NAM levels in liver” value is recorded as “decrease” and the “NMN levels in liver” value was “increase”. For the same molecule, on CD38 [1] (single 10 mg/kg oral dose), the “ADPR levels in liver” value was “decrease”, the “NAD+ levels in liver” value is recorded as “increase”, the “NAM levels in liver” value is given as “decrease” and the “NMN levels in liver” value is “increase”. The same molecule gave an IC50 in assay [2] of 0.179 nM.

Turning to `COCCOc1cc(C(=O)Nc2ccnc(C(F)(F)F)c2)nc(-n2ccnc2)n1` [Compound 39, 2-(1H-imidazol-1-yl)-6-(2-methoxyethoxy)-N-(2-(trifluoromethyl)pyridin-4-yl)pyrimidine-4-carboxamide], at CD38 [3] (liver, 10 mg/kg and 30 mg/kg, 8 hour post LPS challenge), the “CD38 expression in liver” value is on record as “statistically significant decrease”. For the same molecule, on CD38 [3] (liver, after LPS challenge), the “IFNγ expression levels in liver” value was “statistically significant decrease”, the “IL-1β expression levels in liver” value is “statistically significant decrease”, the “IL-6 expression levels in liver” value is reported as “statistically significant decrease” and the “IP-10 expression levels in liver” value was “statistically significant decrease”. In addition, on CD38 [3] (liver, after LPS challenge), the “MCP1 expression levels in liver” value is “statistically significant decrease”, the “MIP1α expression levels in liver” value was “statistically significant decrease”, the “MIP2 expression levels in liver” value was “statistically significant decrease” and the “RANTES expression levels in liver” value is given as “statistically significant decrease”. On CD38 [3] (liver, after LPS challenge), the “TNFα expression levels in liver” value is “statistically significant decrease”. Moreover, on CD38 [3] (spleen, after LPS challenge), the “CD38 expression in spleen” value is reported as “no significant changes”, the “IFNγ expression levels in spleen” value is listed as “statistically significant decrease”, the “IL-1β expression levels in spleen” value was “statistically significant decrease” and the “IL-6 expression levels in spleen” value was “statistically significant decrease”. Also, on CD38 [3] (spleen, after LPS challenge), the “IP-10 expression levels in spleen” value is “statistically significant decrease”, the “MCP1 expression levels in spleen” value is recorded as “statistically significant decrease”, the “MIP1α expression levels in spleen” value was “statistically significant decrease” and the “MIP2 expression levels in spleen” value is given as “statistically significant decrease”. Also, at CD38 [3] (spleen, after LPS challenge), the “RANTES expression levels in spleen” value is “statistically significant decrease” and the “TNFα expression levels in spleen” value is given as “statistically significant decrease”.
